{
  "source": "patent US8637566B2",
  "about": "“Slow infusion of sulcardine and its salts” (HUYA Bioscience International LLC, priority 2009, dated 2014)",
  "key": {"[1]": {"system": "post-MI canine", "test": "Defibrillation threshold / failure risk in post-MI canine model", "assay_type": "in vivo"}, "[2]": {"system": "conscious beagle dogs", "test": "10 minute intravenous infusion, increasing doses: mean blood pressure, heart rate, plasma histamine (ELISA)", "assay_type": "in vivo, dog", "conditions": "pretreatment before i.v. sulcardine sulfate"}, "[3]": {"system": "anesthetized dogs", "test": "Hemodynamic effects of 15 minute infusions (10, 30, 90 mg/kg) with or without diphenhydramine pretreatment", "assay_type": "in vivo, dog", "conditions": "given prior to IV sulcardine sulfate", "description": "Dogs were administered morphine (2 mg/kg subcutaneously) approximately 10-19 minutes prior to administration of anesthesia. Dogs were anesthetized with 1% α-chloralose (100 mg/kg intravenous), followed by a constant infusion of α-chloralose (35-75 mg/kg/hr, IV). Two healthy female dogs were administered escalating doses of sulcardine sulfate intravenously over 15 minutes in an acetate buffer system at dose levels of 10, 30 and 90 mg/kg with dose administrations separated by 60 minutes. Another set of two dogs received test article after pre-treatment with diphenhydramine (1 mg/kg administered 30 minutes prior to start of test article infusion). Following drug administration, dogs were evaluated for ventricular, pulmonary and peripheral hemodynamic changes using Swanz Ganz and femoral catheters as well as by monitoring of blood oxygen saturation, test article blood level, body temperature, blood biochemistry, hematology, ECG, and histamine levels."}},
  "data": [
    {"smiles": "O=C(NCC1CCCCN1)c1cc(OCC(F)(F)F)ccc1OCC(F)(F)F", "note": "(centres unmarked) [flecanide]", "values": [
      {"measurement": "Defibrillation failure risk", "setting": "[1]", "value": "increase defibrillation failure risk"}
    ]},
    {"smiles": "N#Cc1cc(NC(=O)C(=O)O)c(Cl)c(NC(=O)C(=O)O)c1", "note": "[lodoxamide]", "values": [
      {"measurement": "Effect of pretreatment on histamine-mediated events of sulcardine sulfate", "setting": "[2]", "value": "prevented the histamine-mediated events"}
    ]},
    {"smiles": "CN(C)CCOC(c1ccccc1)c1ccccc1", "note": "[diphenhydramine, reference compound]", "values": [
      {"measurement": "Effect of pretreatment on histamine-mediated events of sulcardine sulfate", "setting": "[2]", "value": "prevented the histamine-mediated events"},
      {"measurement": "Effect of anti-histamine on cutaneous manifestations of histamine release (flushing and facial and ear edema)", "setting": "[3]", "value": "blunting some of the cutaneous manifestations of histamine release"},
      {"measurement": "Effect of anti-histamine on hypotension seen on dosing", "setting": "[3]", "value": "only partially reversed the hypotension"}
    ]}
  ]
}
